Test results as given in paper PMC5522529, “Mechanisms of Paradoxical Activation of AMPK by the Kinase Inhibitors SU6656 and Sorafenib” (Cell Chemical Biology, 2017).
Like-named read-outs stand apart in the source and are kept apart here.

Assays:
[1] = molecular target: α2 kinase domain (α2-KD, residues 1–310) (Homo sapiens, UniProt P54646); conditions: read-out: Km for ATP; α2-KD phosphorylated using CaMKK2
AMPK [2] = assay: AMPK activity and Thr172 phosphorylation in HEK293 cells; assay type: cell-based, human; conditions: 1 hr
Protocol: Figure 1 SU6656 Activates AMPK but Not AMPK-Related Kinases (A) HEK293 cells were incubated with the indicated concentrations of SU6656 or berberine (300 μM) for 1 hr; total AMPK activity was assayed in immunoprecipitates (top; mean ± SEM, n = 4), and phosphorylation of AMPK (Thr172), ACC (Ser80), and Raptor (Ser792) analyzed by western blotting (bottom; n = 2). (B) HEK293 cells were incubated with 100 μM SU6656 (1 hr), AMPK complexes containing α1, α2, β1, and β2 immunoprecipitated using isoform-specific antibodies, and AMPK activity measured (mean ± SEM, n = 4). (C) HeLa cells stably expressing LKB1 ([Fogarty et al., 2010]) were incubated with 100 μM SU6656 for 1 hr, AMPK or individual ARKs immunoprecipitated, and kinase assays carried out (antibodies that distinguish MARK2/MARK3 were not available, so they were assayed together). Results are means ± SEM (n = 2). In all panels, asterisks indicate significant differences from controls without SU6656. *p < 0.05, **p < 0.01, ****p < 0.0001. […]
Endogenous AMPK was immunoprecipitated using the specified antibodies (for total AMPK, an equal mixture of anti-α1 and –α2 antibodies) and assayed at 200 μM ATP ([Hardie et al., 2000], [Towler et al., 2008]) using the AMARA peptide ([Dale et al., 1995]) as substrate, except for assays of allosteric activation by AMP (Figure 5A) where the SAMS peptide was used as substrate with 2 mM ATP ([Gowans et al., 2013]). The AMPK-related kinases SIK1, SIK2, SIK3, SNARK, MARK2/3 and MARK4 were immunoprecipitated and assayed as previously described ([Lizcano et al., 2004]) in lysates of Hela cells stably expressing LKB1 ([Fogarty et al., 2010]). LKB1 was assayed using the LKBtide peptide as substrate ([Sakamoto et al., 2004]).

ACC = ACC phosphorylation in HEK293 cells (western blot); assay type: cell-based, human; conditions: 1 hr
Protocol: Figure 1 SU6656 Activates AMPK but Not AMPK-Related Kinases (A) HEK293 cells were incubated with the indicated concentrations of SU6656 or berberine (300 μM) for 1 hr; total AMPK activity was assayed in immunoprecipitates (top; mean ± SEM, n = 4), and phosphorylation of AMPK (Thr172), ACC (Ser80), and Raptor (Ser792) analyzed by western blotting (bottom; n = 2). (B) HEK293 cells were incubated with 100 μM SU6656 (1 hr), AMPK complexes containing α1, α2, β1, and β2 immunoprecipitated using isoform-specific antibodies, and AMPK activity measured (mean ± SEM, n = 4). (C) HeLa cells stably expressing LKB1 ([Fogarty et al., 2010]) were incubated with 100 μM SU6656 for 1 hr, AMPK or individual ARKs immunoprecipitated, and kinase assays carried out (antibodies that distinguish MARK2/MARK3 were not available, so they were assayed together). Results are means ± SEM (n = 2). In all panels, asterisks indicate significant differences from controls without SU6656. *p < 0.05, **p < 0.01, ****p < 0.0001.
(B) WT or RG cells were treated as in (A) and nucleotides extracted for analysis (mean ± SD, n = 3). […] (E) (See also Figure S2) Time courses of cellular oxygen uptake before and after addition of the indicated concentrations of sorafenib (SO, μM), SU6656 (100 μM) or phenformin (PHEN, 10 mM) (mean ± SEM, n = 4). (F) Effect of various concentrations of sorafenib or phenformin (10 mM) on activation (top, mean ± SEM, n = 3) or phosphorylation (bottom) of AMPK in cells expressing wild-type AMPK-γ2 (WT) or the R531G mutant AMPK-γ2 (RG). In all panels, asterisks show significant differences from DMSO controls (ns, not significant). […]
Cells were incubated for 60 min and AMPK activity measured; results in the top panel are means ± SEM (n = 8), with significant differences from the DMSO control indicated (ns, not significant). […]
SDS-PAGE was performed using precast Bis-Tris 4–12% gradient polyacrylamide gels in the MOPS buffer system (ThermoFisher Scientific). […] Protein concentrations were determined by Coomassie Blue binding with bovine serum albumin as standard ([Bradford, 1976]). […]

HEK293 cells = assay: Cellular AMP:ATP and ADP:ATP ratios; assay type: cell-based, human; conditions: 1 hr
Protocol: (B) WT or RG cells were treated as in (A) and nucleotides extracted for analysis (mean ± SD, n = 3). […] (E) (See also Figure S2) Time courses of cellular oxygen uptake before and after addition of the indicated concentrations of sorafenib (SO, μM), SU6656 (100 μM) or phenformin (PHEN, 10 mM) (mean ± SEM, n = 4). (F) Effect of various concentrations of sorafenib or phenformin (10 mM) on activation (top, mean ± SEM, n = 3) or phosphorylation (bottom) of AMPK in cells expressing wild-type AMPK-γ2 (WT) or the R531G mutant AMPK-γ2 (RG). In all panels, asterisks show significant differences from DMSO controls (ns, not significant). In (B), daggers (†) show significant differences between results in WT and RG cells. *p < 0.05, **p < 0.01, ***p < 0.001, ****p < 0.0001, ^††††p < 0.0001.
Cells were incubated for 60 min and AMPK activity measured; results in the top panel are means ± SEM (n = 8), with significant differences from the DMSO control indicated (ns, not significant). The bottom panels show western blots from the same experiment (n = 2). (B) Analysis of AMP:ATP and ADP:ATP ratios from a parallel experiment to that in (A). Results are means ± SEM (n = 3), with significant differences from the DMSO control indicated. *p < 0.05, **p < 0.01, ****p < 0.0001.
The levels of AMP, ADP and ATP were measured using a TSQ Quantiva interfaced with Ultimate 3000 Liquid Chromatography system (ThermoScientific), equipped with a porous graphitic carbon column (HyperCarb 30x1mm ID 3 μm; Part No: C-35003-031030, Thermo-Scientific). Mobile phase buffer A consisted of 0.3% (v/v) formic acid adjusted to pH 9 with ammonia prior to a 1:10 dilution. Mobile phase buffer B was 80% (v/v) acetonitrile. The column was maintained at a controlled temperature of 30°C and was equilibrated with 10% buffer B for 5 minutes at a constant flow rate of 0.06 mL/min. Aliquots of 1 μL of each sample were loaded onto the column and compounds eluted with a linear gradient of 10%-60% buffer B over 9 min. Buffer B was then increased to 100% within 1 min, and the column washed for 5 min with 100% Buffer B. Eluents were sprayed into the TSQ Quantiva using Ion Max NG ion source with ion transfer tube temperature set to 350°C and vaporizer temperature 125°C. The TSQ Quantiva was run in negative mode with a spray voltage of 2600, sheath gas 40 and Aux gas 10. Levels of ATP, ADP and AMP were measured using multiple reactions monitoring mode (MRM) with optimised collision energies and radio frequencies previously determined by infusing pure compounds. Three transitions were used to monitor each of the three compounds, ATP (505.92>158.98, 505.92>408.12 and 505.92>426.12), ADP (426.98>158.98, 426.98>328.78 and 426.98>409.09) and AMP (345.96>134.20, 345.96>151.27 and 345.96>211.12).

LKB1 versus AMPK = tested on: LKB1 versus AMPK; set-up: method as in MRC Kinase Inhibitor Database; conditions: ref MRC Kinase Inhibitor Database; cited from earlier work
Erk1/2 = Erk1/2 phosphorylation in SYF cells; assay type: cell-based, mouse; conditions: SU6656 100 μM, PP2 100 nM
Erk1/Erk2 = Erk1/Erk2 phosphorylation in HEK293 cells (western blot); assay type: cell-based, human; conditions: SU6656 100 μM, PP2 100 nM
AMPK [3] = assay type: cell-based, mouse; conditions: SYF cells, 1 hr
Protocol: We next tested the effect of SU6656 in SYF cells, which are mouse embryo fibroblasts (MEFs) with null alleles for Src, Yes, and Fyn, the three Src kinases expressed in MEFs ([Klinghoffer et al., 1999]).
Top: AMPK activity (mean ± SEM, n = 4); bottom: western blots showing phosphorylation of Thr172 on AMPK, and of ERK1/2, in cells treated with DMSO (control), SU6656 (100 μM), or PP2 (100 nM) (n = 2). (B) As (A), but in SYF cells. (C) HeLa cells were transfected with DNAs encoding GFP alone, or GFP fused to WT, Y261F/Y365F (FF), or Y36F/Y261F/Y365F (FFF) mutants of LKB1; cells were treated with increasing concentrations of SU6656 for 1 hr and AMPK activity determined (mean ± SEM, n = 4). See also Figure S1. (D) HEK293 cells were transfected with DNAs encoding FLAG-tagged AMPK-α2 with or without a Y436F mutation. Cells were incubated with DMSO (control), 100 μM SU6656, 10 mM phenformin, or 10 μM A23187 for 1 hr; AMPK complexes were immunoprecipitated using anti-FLAG antibody and assayed. The top panels show kinase activities (mean ± SD, n = 3); the bottom panels show blots from the same experiment (n = 2). In all panels, asterisks indicate significant differences from DMSO controls; in (D), there were no significant differences between the WT and Y463F mutant. **p < 0.01, ****p < 0.0001. […]

α2 kinase domain (α2-KD, residues 1–310), sequence (P54646 1-310): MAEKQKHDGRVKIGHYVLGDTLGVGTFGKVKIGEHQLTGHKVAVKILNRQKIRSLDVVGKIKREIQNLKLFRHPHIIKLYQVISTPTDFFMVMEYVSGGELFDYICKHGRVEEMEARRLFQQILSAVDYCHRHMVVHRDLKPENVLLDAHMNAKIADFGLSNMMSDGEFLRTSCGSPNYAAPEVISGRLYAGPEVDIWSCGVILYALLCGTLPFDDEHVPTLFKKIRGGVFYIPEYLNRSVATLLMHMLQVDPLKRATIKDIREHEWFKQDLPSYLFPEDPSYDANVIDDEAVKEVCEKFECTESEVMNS

| SMILES | Km [1] [µM] | AMPK activity / Thr172 phosphorylation (AMPK [2]) | ACC phosphorylation (ACC) | cellular AMP:ATP and ADP:ATP ratios (HEK293 cells) | potency of LKB1 inhibition relative to AMPK inhibition (LKB1 versus AMPK) | Erk1/2 phosphorylation (Erk1/2) | Erk1/Erk2 phosphorylation (Erk1/Erk2) | AMPK activity / Thr172 phosphorylation (AMPK [3]) |
| --- | --- | --- | --- | --- | --- | --- | --- | --- |
| Nc1ncnc2c1ncn2[C@@H]1O[C@H](COP(=O)(O)OP(=O)(O)OP(=O)(O)O)[C@@H](O)[C@H]1O [ATP] | 151 ± 7 | – | – | – | – | – | – | – |
| CC1(C)C(=O)N([C@H]2CCc3c(O)cccc32)c2nc(Nc3cccc(CN4CCCC4)c3)ncc21 [MRT199665] | – | modest increase in AMPK activity and Thr172 phosphorylation | inhibition of phosphorylation | not associated with changes in AMP:ATP or ADP:ATP ratios | inhibition of LKB1 was less potent than that of AMPK | – | – | – |
| CC(C)(C)n1nc(-c2ccc(Cl)cc2)c2c(N)ncnc21 [PP2] | – | had no effect on AMPK activity or Thr172 phosphorylation | – | – | – | had no effect on Erk1/2 | reduced phosphorylation of Erk1/Erk2 | still had no effect on AMPK |
